PubChem BioAssay AID1259407 (Chemical Carcinogenesis Research Information System (CCRIS), 2018)
Active and inactive are the calls of the source. No rule for the calls is given here.

Test system: CCRIS mutagenicity, Ames/micronucleus/aberration tests
Experiment: CCRIS mutagenicity studies
[1] = Test System: AMES SALMONELLA TYPHIMURIUM, Strain/Indicator: TA98, Metabolic Activation: NONE, Method: STANDARD PLATE
[2] = Test System: AMES SALMONELLA TYPHIMURIUM, Strain/Indicator: TA100, Metabolic Activation: NONE, Method: STANDARD PLATE
[3] = Test System: AMES SALMONELLA TYPHIMURIUM, Strain/Indicator: TA1535, Metabolic Activation: NONE, Method: STANDARD PLATE
[4] = Test System: AMES SALMONELLA TYPHIMURIUM, Strain/Indicator: TA1537, Metabolic Activation: NONE, Method: STANDARD PLATE
[5] = Test System: AMES SALMONELLA TYPHIMURIUM, Strain/Indicator: TA1538, Metabolic Activation: NONE, Method: STANDARD PLATE
[6] = Test System: AMES SALMONELLA TYPHIMURIUM, Strain/Indicator: TA98, Metabolic Activation: NONE, Method: PREINCUBATION
[7] = Test System: AMES SALMONELLA TYPHIMURIUM, Strain/Indicator: TA100, Metabolic Activation: NONE, Method: PREINCUBATION

O=C(O)/C=C/c1ccc(O)c(O)c1
mutagenic call (Test System: AMES SALMONELLA TYPHIMURIUM, Strain/Indicator: TA98, Metabolic Activation: HAMSTER, LIVER, S-9, AROCLOR 1254, Method: STANDARD PLATE): inactive; negative | mutagenic call [1]: inactive; negative | mutagenic call (Test System: AMES SALMONELLA TYPHIMURIUM, Strain/Indicator: TA98, Metabolic Activation: RAT, LIVER, S-9, AROCLOR 1254, Method: STANDARD PLATE): inactive; negative | mutagenic call (Test System: AMES SALMONELLA TYPHIMURIUM, Strain/Indicator: TA100, Metabolic Activation: HAMSTER, LIVER, S-9, AROCLOR 1254, Method: STANDARD PLATE): inactive; negative | mutagenic call [2]: inactive; negative | mutagenic call (Test System: AMES SALMONELLA TYPHIMURIUM, Strain/Indicator: TA100, Metabolic Activation: RAT, LIVER, S-9, AROCLOR 1254, Method: STANDARD PLATE): inactive; negative | mutagenic call (Test System: AMES SALMONELLA TYPHIMURIUM, Strain/Indicator: TA1535, Metabolic Activation: HAMSTER, LIVER, S-9, AROCLOR 1254, Method: STANDARD PLATE): inactive; negative | mutagenic call [3]: inactive; negative | mutagenic call (Test System: AMES SALMONELLA TYPHIMURIUM, Strain/Indicator: TA1535, Metabolic Activation: RAT, LIVER, S-9, AROCLOR 1254, Method: STANDARD PLATE): inactive; negative | mutagenic call (Test System: AMES SALMONELLA TYPHIMURIUM, Strain/Indicator: TA1537, Metabolic Activation: HAMSTER, LIVER, S-9, AROCLOR 1254, Method: STANDARD PLATE): inactive; negative | mutagenic call [4]: inactive; negative | mutagenic call (Test System: AMES SALMONELLA TYPHIMURIUM, Strain/Indicator: TA1537, Metabolic Activation: RAT, LIVER, S-9, AROCLOR 1254, Method: STANDARD PLATE): inactive; negative | mutagenic call (Test System: AMES SALMONELLA TYPHIMURIUM, Strain/Indicator: TA1538, Metabolic Activation: HAMSTER, LIVER, S-9, AROCLOR 1254, Method: STANDARD PLATE): inactive; negative | mutagenic call [5]: inactive; negative | mutagenic call (Test System: AMES SALMONELLA TYPHIMURIUM, Strain/Indicator: TA1538, Metabolic Activation: RAT, LIVER, S-9, AROCLOR 1254, Method: STANDARD PLATE): inactive; negative | mutagenic call (Test System: MOUSE LYMPHOMA, Strain/Indicator: L5178Y (TK+/TK-), Metabolic Activation: NONE, Method: SUSPENSION/PLATE): active; positive. reevaluation of results: positive | mutagenic call (Test System: MOUSE LYMPHOMA, Strain/Indicator: L5178Y (TK+/TK-), Metabolic Activation: RAT, LIVER, S-9, AROCLOR 1254, Method: SUSPENSION/PLATE): inactive; negative; reevaluation of results: negative

O[C@H]1[C@H]2O[C@H]2c2c(c3ccccc3c3ccccc23)[C@@H]1O
mutagenic call (Test System: AMES SALMONELLA TYPHIMURIUM, Strain/Indicator: TA97, Metabolic Activation: NONE, Method: PREINCUBATION): active; positive | mutagenic call [6]: active; positive | mutagenic call [7]: active; positive | mutagenic call (Test System: AMES SALMONELLA TYPHIMURIUM, Strain/Indicator: TA104, Metabolic Activation: NONE, Method: PREINCUBATION): active; positive | mutagenic call (Test System: CHINESE HAMSTER V-79, Strain/Indicator: V-79/6-THIOGUANINE, Metabolic Activation: NONE): active; positive

O=C(O)C(F)(F)C(F)(Cl)C(F)(F)C(F)(Cl)C(F)(F)Cl (centres undefined)
mutagenic call [6]: inactive; negative | mutagenic call (Test System: AMES SALMONELLA TYPHIMURIUM, Strain/Indicator: TA98, Metabolic Activation: RAT, LIVER, S-9, Method: PREINCUBATION): inactive; negative | mutagenic call [7]: inactive; negative | mutagenic call (Test System: AMES SALMONELLA TYPHIMURIUM, Strain/Indicator: TA100, Metabolic Activation: RAT, LIVER, S-9, Method: PREINCUBATION): inactive; negative | mutagenic call (Test System: AMES SALMONELLA TYPHIMURIUM, Strain/Indicator: TA1535, Metabolic Activation: NONE, Method: PREINCUBATION): inactive; negative | mutagenic call (Test System: AMES SALMONELLA TYPHIMURIUM, Strain/Indicator: TA1535, Metabolic Activation: RAT, LIVER, S-9, Method: PREINCUBATION): inactive; negative | mutagenic call (Test System: AMES SALMONELLA TYPHIMURIUM, Strain/Indicator: TA1537, Metabolic Activation: NONE, Method: PREINCUBATION): inactive; negative | mutagenic call (Test System: AMES SALMONELLA TYPHIMURIUM, Strain/Indicator: TA1537, Metabolic Activation: RAT, LIVER, S-9, Method: PREINCUBATION): inactive; negative | mutagenic call (Test System: AMES SALMONELLA TYPHIMURIUM, Strain/Indicator: TA1538, Metabolic Activation: NONE, Method: PREINCUBATION): inactive; negative | mutagenic call (Test System: AMES SALMONELLA TYPHIMURIUM, Strain/Indicator: TA1538, Metabolic Activation: RAT, LIVER, S-9, Method: PREINCUBATION): inactive; negative | mutagenic call (Test System: CHINESE HAMSTER OVARY, Strain/Indicator: CHO-K1-BH4 (HGPRT), Metabolic Activation: NONE, Method: STANDARD PLATE): inactive; negative | mutagenic call (Test System: CHINESE HAMSTER OVARY, Strain/Indicator: CHO-K1-BH4 (HGPRT), Metabolic Activation: RAT, LIVER, S-9, Method: STANDARD PLATE): inactive; negative | mutagenic call (Test System: UDS RODENT HEPATOCYTES, Strain/Indicator: THY INCORP (NON-S-PHASE), Metabolic Activation: NONE, Method: AUTORADIOGRAPHY): inactive; negative

CC(=O)OC1Cc2c3ccc4ccccc4c3cc3ccc(C)c1c23 (centres undefined)
mutagenic call [1]: inactive; negative | mutagenic call [2]: active; positive

C=C1/C(=C\C=C2/CCC[C@]3(C)[C@@H]([C@H](C)CC[C@@H](O)C(C)C)CC[C@@H]23)C[C@@H](O)C[C@@H]1O
mutagenic call [1]: inactive; negative | mutagenic call (Test System: AMES SALMONELLA TYPHIMURIUM, Strain/Indicator: TA98, Metabolic Activation: RAT, LIVER, S-9, PHENOBARBITAL AND 5,6-BENZOFLAVONE, Method: PREINCUBATION): inactive; negative | mutagenic call [2]: inactive; negative | mutagenic call (Test System: AMES SALMONELLA TYPHIMURIUM, Strain/Indicator: TA100, Metabolic Activation: RAT, LIVER, S-9, PHENOBARBITAL AND 5,6-BENZOFLAVONE, Method: PREINCUBATION): inactive; negative | mutagenic call [3]: inactive; negative | mutagenic call (Test System: AMES SALMONELLA TYPHIMURIUM, Strain/Indicator: TA1535, Metabolic Activation: RAT, LIVER, S-9, PHENOBARBITAL AND 5,6-BENZOFLAVONE, Method: PREINCUBATION): inactive; negative | mutagenic call [4]: inactive; negative | mutagenic call (Test System: AMES SALMONELLA TYPHIMURIUM, Strain/Indicator: TA1537, Metabolic Activation: RAT, LIVER, S-9, PHENOBARBITAL AND 5,6-BENZOFLAVONE, Method: PREINCUBATION): inactive; negative | mutagenic call [5]: inactive; negative | mutagenic call (Test System: AMES SALMONELLA TYPHIMURIUM, Strain/Indicator: TA1538, Metabolic Activation: RAT, LIVER, S-9, PHENOBARBITAL AND 5,6-BENZOFLAVONE, Method: PREINCUBATION): inactive; negative | mutagenic call (Test System: E. COLI, Strain/Indicator: WP2 UVRA, Metabolic Activation: NONE, Method: STANDARD PLATE): inactive; negative | mutagenic call (Test System: E. COLI, Strain/Indicator: WP2 UVRA, Metabolic Activation: RAT, LIVER, S-9, PHENOBARBITAL AND 5,6-BENZOFLAVONE, Method: PREINCUBATION): inactive; negative
